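Assay format: 96-well plates, 48-hour exposure. Abbreviation: GI50, concentration required for 50% inhibition of growth.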 Activity calls are given as the source filed them. Rule as the data show it: active = GI50 up to about 1.1 µM and inactive = higher.
Experiments:
Assay in all cases: inhibition of tumour cell growth, NCI panel, 48 h
[1] = tested on: UACC-257
[2] = tested on: SK-MEL-28
[3] = tested on: NCI-H460
[4] = tested on: SF-539
[5] = tested on: KM12
[6] = tested on: BT-549
[7] = tested on: EKVX
[8] = tested on: HOP-92
[9] = tested on: ACHN
[10] = tested on: TK-10
[11] = tested on: MDA-MB-435
[12] = tested on: NCI-H522
[13] = tested on: LOX IMVI
[14] = tested on: SF-295
[15] = tested on: IGROV-1
[16] = tested on: SF-268
[17] = tested on: OVCAR-8
[18] = tested on: HOP-62
[19] = tested on: 786-0
[20] = tested on: T47D
[21] = tested on: SK-MEL-2
[22] = tested on: CCRF-CEM
[23] = tested on: OVCAR-4
[24] = tested on: DU-145
[25] = tested on: SR
[26] = tested on: U-251
[27] = tested on: K562
[28] = tested on: MOLT-4
[29] = tested on: A549
[30] = tested on: OVCAR-5
[31] = tested on: HL-60
[32] = tested on: NCI-H226
[33] = tested on: MDA-MB-231
[34] = tested on: HT-29
[35] = tested on: RXF 393
[36] = tested on: CAKI-1
[37] = tested on: SK-MEL-5
[38] = tested on: MCF7
[39] = tested on: PC-3
[40] = tested on: NCI-H23
[41] = tested on: M14
[42] = tested on: NCI/ADR-RES
[43] = tested on: UO-31
[44] = tested on: UACC-62
[45] = tested on: SNB-75
[46] = tested on: OVCAR-3
[47] = tested on: Malme-3M
[48] = tested on: Hs-578T
[49] = tested on: HCT-116
[50] = tested on: SNB-19
[51] = tested on: A498
[52] = tested on: SN12C
[53] = tested on: RPMI-8226
[54] = tested on: SK-OV-3
[55] = tested on: HCC 2998
[56] = tested on: HCT-15
[57] = tested on: COLO 205
[58] = tested on: SW-620
[59] = tested on: MDA-N

Compound: CC(C)(C)c1cc(C(=O)/C=C/c2ccc3c(c2)CCO3)cc(C(C)(C)C)c1O
- GI50 [1]: 0.792 µM (active)
- GI50 [2]: > 83 µM (inactive)
- GI50 [3]: 0.76 µM (active)
- GI50 [4]: 0.619 µM (active)
- GI50 [5]: 0.49 µM (active)
- GI50 [6]: 1.8 µM (inactive)
- GI50 [7]: 0.729 µM (active)
- GI50 [8]: 16.2 µM (inactive)
- GI50 [9]: 1.69 µM (inactive)
- GI50 [10]: 1.31 µM (inactive)
- GI50 [11]: 0.327 µM (active)
- GI50 [12]: 0.323 µM (active)
- GI50 [13]: 1.57 µM (inactive)
- GI50 [14]: 1.69 µM (inactive)
- GI50 [15]: 2.29 µM (inactive)
- GI50 [16]: 2.58 µM (inactive)
- GI50 [17]: 1.63 µM (inactive)
- GI50 [18]: 4.15 µM (inactive)
- GI50 [19]: 1.12 µM (active)
- GI50 [20]: 4.86 µM (inactive)
- GI50 [21]: 1.29 µM (inactive)
- GI50 [22]: 1.07 µM (active)
- GI50 [23]: 0.869 µM (active)
- GI50 [24]: 1.39 µM (inactive)
- GI50 [25]: 0.548 µM (active)
- GI50 [26]: 0.94 µM (active)
- GI50 [27]: 0.938 µM (active)
- GI50 [28]: 2.42 µM (inactive)
- GI50 [29]: 1.63 µM (inactive)
- GI50 [30]: 2.39 µM (inactive)
- GI50 [31]: 0.951 µM (active)
- GI50 [32]: 2.24 µM (inactive)
- GI50 [33]: 2.28 µM (inactive)
- GI50 [34]: 1.04 µM (active)
- GI50 [35]: 0.216 µM (active)
- GI50 [36]: 0.724 µM (active)
- GI50 [37]: 0.908 µM (active)
- GI50 [38]: 1.23 µM (inactive)
- GI50 [39]: 0.891 µM (active)
- GI50 [40]: 1.14 µM (inactive)
- GI50 [41]: 1.17 µM (inactive)
- GI50 [42]: 0.614 µM (active)
- GI50 [43]: 1.2 µM (inactive)
- GI50 [44]: 1.16 µM (inactive)
- GI50 [45]: 0.733 µM (active)
- GI50 [46]: 5.07 µM (inactive)
- GI50 [47]: > 100 µM (inactive)
- GI50 [48]: 1.32 µM (inactive)
- GI50 [49]: 1.2 µM (inactive)
- GI50 [50]: 2.94 µM (inactive)
- GI50 [51]: 1.12 µM (active)
- GI50 [52]: 2.99 µM (inactive)
- GI50 [53]: 0.984 µM (active)
- GI50 [54]: 1.64 µM (inactive)
- GI50 [55]: 1.89 µM (inactive)
- GI50 [56]: 1.04 µM
- GI50 [57]: 0.701 µM (active)
- GI50 [58]: 1.13 µM (inactive)

Compound: O=C(O)c1cccc(F)c1C(=O)c1ccc2ccccc2c1
- GI50 [1]: > 100 µM (inactive)
- GI50 [2]: > 100 µM (inactive)
- GI50 [3]: > 100 µM (inactive)
- GI50 [4]: > 100 µM (inactive)
- GI50 [5]: > 100 µM (inactive)
- GI50 [6]: > 100 µM (inactive)
- GI50 [59]: > 100 µM (inactive)
- GI50 [7]: > 100 µM (inactive)
- GI50 [8]: > 100 µM (inactive)
- GI50 [9]: > 100 µM (inactive)
- GI50 [10]: > 100 µM (inactive)
- GI50 [11]: > 100 µM (inactive)
- GI50 [12]: 62.2 µM (inactive)
- GI50 [13]: > 100 µM (inactive)
- GI50 [14]: > 100 µM (inactive)
- GI50 [15]: > 100 µM (inactive)
- GI50 [16]: > 100 µM (inactive)
- GI50 [17]: > 100 µM (inactive)
- GI50 [18]: > 100 µM (inactive)
- GI50 [19]: > 100 µM (inactive)
- GI50 [20]: 3.94 µM (inactive)
- GI50 [21]: > 100 µM (inactive)
- GI50 [22]: > 100 µM (inactive)
- GI50 [23]: > 100 µM (inactive)
- GI50 [26]: > 100 µM (inactive)
- GI50 [27]: > 100 µM (inactive)
- GI50 [29]: > 100 µM (inactive)
- GI50 [30]: > 100 µM (inactive)
- GI50 [31]: > 100 µM (inactive)
- GI50 [32]: > 100 µM (inactive)
- GI50 [33]: > 100 µM (inactive)
- GI50 [34]: > 100 µM (inactive)
- GI50 [35]: > 100 µM (inactive)
- GI50 [36]: > 100 µM (inactive)
- GI50 [37]: < 0.01 µM (active)
- GI50 [38]: > 100 µM (inactive)
- GI50 [39]: > 100 µM (inactive)
- GI50 [41]: > 100 µM (inactive)
- GI50 [42]: > 100 µM (inactive)
- GI50 [43]: > 100 µM (inactive)
- GI50 [44]: > 100 µM (inactive)
- GI50 [45]: 73.1 µM (inactive)
- GI50 [46]: > 100 µM (inactive)
- GI50 [47]: > 100 µM (inactive)
- GI50 [48]: > 100 µM (inactive)
- GI50 [49]: > 100 µM (inactive)
- GI50 [50]: > 100 µM (inactive)
- GI50 [51]: > 100 µM (inactive)
- GI50 [52]: > 100 µM (inactive)
- GI50 [53]: > 100 µM (inactive)
- GI50 [54]: > 100 µM (inactive)
- GI50 [56]: > 100 µM
- GI50 [57]: 2.99 µM (inactive)
- GI50 [58]: > 100 µM (inactive)

From ChEMBL document CHEMBL1201862, “PubChem BioAssay data set” (2004)
